# From patent US8093286B2, “Methods for treatment with bucindolol based on genetic targeting” (The Regents of the University of Colorado, a body corporate, priority 2004, dated 2012)
# Entries after “also recorded” stand apart in the source; their conditions may differ.
# Key:
# heart failure patients = settings: cited from earlier work
# [1] = test system: β1-Arg389 transgenic mice (ventricular expression of human β1AR); experiment: chronic β-blockade in transgenic mice, Western blots of ventricular signaling and Ca2+-handling proteins; type: in vivo, mouse; settings: 0.5 mg/ml in drinking water for 6 months; ANOVA P<0.002
# Method: (§1) Using the α-myosin heavy chain promoter, transgenic mice with targeted ventricular expression of the human β1AR (Arg389 or Gly389 forms) were utilized to ascertain allele-specific responses to chronic administration of the […] propranolol. […] The generation of these mice and their partial characterization has recently been reported in detail elsewhere (Perez et al, 2003). For the current studies, 3-month-old mice of both genotypes, as well as nontransgenic mice, were treated with propranolol (0.5 mg/ml) in their drinking water, or water without propranolol (control) continuously for 6 months. Hearts were then removed and ventricular protein extracts prepared. These were subjected to Western blotting to ascertain expression of the following proteins using methods previously described (Perez et al., 2003): Gαs, Gαi2, G-protein coupled receptor kinase-2 (GRK2), adenylyl cyclase type 5 (AC5), total phospholamban (T-PLN), phosphorylated phospholamban (P-PLN) and sarcoplasmic endoplasmic reticulum calcium ATPase-2A (SERCA). Treatment effect was assessed by comparing expression of the proteins of untreated and propranolol treated mice, within genotype, by ANOVA. The study was approved by the University of Cincinnati Animal Use and Care Committee.
# [2] = test system: β1-Gly389 transgenic mice (ventricular expression of human β1AR); experiment: as above; type: in vivo, mouse; settings: 0.5 mg/ml in drinking water for 6 months; P=0.67
# Method: as §1
# [3] = test system: failing human right ventricular trabeculae; experiment: contractile response of isolated right ventricular trabeculae from failing human hearts; settings: for maximal isoproterenol-stimulated systolic tension: failing hearts
# Method: (§2) Nonfailing hearts were obtained from local potential organ donors whose hearts were not transplanted because of physical or ABO blood type incompatibility. Failing hearts were from patients with end-stage heart failure due to ischemic or non-ischemic dilated cardiomyopathies who underwent cardiac transplantation. The demographic characteristics of the hearts are provided in Results. The contractile response of isolated, field stimulated, human trabeculae was assessed as previously described {1755; a-c}. Trabeculae of uniform size (1 to 2×6 to 8 mm) were mounted in 80 ml muscle bath chambers in Tyrode's solution at pH 7.45 bubbled with 95% O2-5% CO2 at 36^0. After equilibration, a tension of 75% of Lmax was applied to each individual trabeculum. Field-stimulation by a 5-ms pulse at 10% above threshold was then applied, and after equilibration full dose-response curves to isoproterenol, bucindolol or xamoterol were performed using the indicated concentrations and application of increasing doses every 5 minutes. In experiments in which forskolin was used to enhance signal transduction {e,f}, 10^−6 M of this adenylyl cyclase activator was applied to the tissue baths 15-20 minutes prior to the performance of dose-response curves, and allowed to achieve stability of tension response. Systolic tension at each dose was calculated as the stimulated tension in mN/mm^2 minus baseline tension. The maximum tension, concentration of isoproterenol that produced 50% of the maximum developed tension (EC50) and curve slope were computed by nonlinear repeated measures analysis of covariance. […] Statistical methods were employed as described in Examples 3 and 4.
# norepinephrine = settings: 3 months, MOXCON Trial; cited from earlier work
# [4] = test system: nonfailing human right ventricular trabeculae; experiment: contractile response of isolated right ventricular trabeculae from nonfailing human hearts
# Method: as §2
# [5] = U.S. enrolled patients in MERIT-HF
compound,measurement,setting,value
"COCCc1ccc(OCC(O)CNC(C)C)cc1.COCCc1ccc(OCC(O)CNC(C)C)cc1.O=C(O)CCC(=O)O (stereo not drawn) [metoprolol CR/XL, metoprolol succinate CR/XL]",Mortality + HF Hospitalization hazard ratio vs placebo,heart failure patients; MERIT-HF US Pts (n = 1071/3991),~0.84; 200 Ev
same,mortality plus heart failure hospitalization hazard ratio vs placebo,heart failure patients; MERIT-HF entire cohort (UCL 0.80),0.69
same,mortality increase,heart failure patients; [5],5%
same,mortality+HF hospitalization decrease,heart failure patients; [5],16%
CC(C)NCC(O)COc1cccc2ccccc12 (stereo not drawn) [propranolol],treatment effect on expression of cardiac signaling and Ca2+-handling proteins,[1],overall treatment response
same,treatment effect on expression of cardiac signaling and Ca2+-handling proteins,[2],no effect
O=C(NCCNCC(O)COc1ccc(O)cc1)N1CCOCC1 (stereo not drawn) [xamoterol],inotropic effect on systolic force (dose-response curve slope),"[3]; β1AR Arg/Arg, forskolin pretreatment",increase in force
same,inotropic effect on systolic force (dose-response curve slope),"[3]; β1AR Arg/Arg, forskolin pretreatment, listed as Xamoterol",positive inotropic effect
same,inotropic effect on systolic force (dose-response curve slope),"[3]; β1AR Arg/Arg, without forskolin",increase in force; also recorded: positive inotropic effect
same,inotropic effect on systolic force (dose-response curve slope),"[3]; β1AR Gly carriers, forskolin pretreatment",increase in force
same,inotropic effect on systolic force (dose-response curve slope),"[3]; β1AR Gly carriers, forskolin pretreatment, listed as Xamoterol",positive inotropic effect
same,inotropic effect on systolic force (dose-response curve slope),"[3]; β1AR Gly carriers, without forskolin",negative inotropic effect
COc1ccccc1OCCNCC(O)COc1cccc2[nH]c3ccccc3c12 (stereo not drawn) [carvedilol],positive inotropic signal compared with bucindolol,"[3]; failing heart, forskolin pretreated preparations",more of a positive inotropic signal than bucindolol
COc1nc(C)nc(Cl)c1N=C1NCCN1 [moxonidine],relative reduction in norepinephrine,norepinephrine,24%
CC(C)NCC(O)c1ccc(O)c(O)c1 (stereo not drawn) [isoproterenol],maximal isoproterenol-stimulated systolic tension,[3]; β1-Arg389 homozygotes,9.4±1.9 mN/mm^2
same,maximal isoproterenol-stimulated systolic tension,[3]; β1-Gly389 carriers,2.4±0.60 mN/mm^2
same,maximal isoproterenol-stimulated systolic tension,[4]; β1-Arg389 homozygotes,13±2.5 mN/mm^2
same,maximal isoproterenol-stimulated systolic tension,[4]; β1-Gly389 carriers,5.2±1.4 mN/mm^2
